SMILES | melting point
COC(=O)C(C)(C)NC(=O)c1cc2c(n(CC3CCCCC3)c1=O)CCCCCC2 | 260 to 263 °C
O/N=C(/CCN1CCN(c2ncccn2)CC1)c1ccccc1 | 175 to 177 °C
CN(C)C1(c2ccccc2)CCC(=CC(=O)NCc2ccccc2)CC1 (configuration not stated) | 145 to 148 °C
O=c1n(CCCF)nnn1-c1cc(Oc2ccc(O)cc2)c(Cl)cc1F | 157 to 159 °C
COc1ccc(C2CC(=O)Nc3ccccc3C(=O)C2)cc1 (configuration not stated) | 138 to 140 °C
C=C(c1ccccc1)c1ccc2nc(N)n(S(=O)(=O)N(C)C)c2c1 | 201 to 202 °C
O=C(/C=C/c1c[nH]c2ccc(O)cc12)c1ccncc1 | 262 to 268 °C
CCCCCc1sc(C(=O)OCC)nc1-c1ccccc1 | 51 to 52 °C
O=C1NCN(c2ccc(F)cc2)C12CCN(CCCn1c(=O)[nH]c3ccccc31)CC2 | 215 °C
N#CC(CCc1ccc(Cl)cc1)(c1ccccc1)c1cccnc1 (configuration not stated) | 83 to 84 °C
CCCc1nc2c(N)nc(C)c(C)c2n1C1(OC)CCCCC1 | 192 to 193 °C
O=C(CN1CC(c2ccc(Cl)cc2)CC1=O)N1CCNCC1 (configuration not stated) | 148 to 150 °C
Cc1c(Sc2ccc(Cl)cc2)nn(-c2ccc(Oc3ccccc3)cc2)c(=O)c1C#N | 164 °C
NC(N)=NC(=O)c1ccc2c(c1)S(=O)(=O)CC2O (configuration not stated) | 240 to 241 °C
O=S1(=O)c2ccc(Cl)c3cccc(c23)N1CCCN1CCN(c2ccc(F)cc2)CC1 | 125 °C
CC1(C)Cc2c(c(O)cc3c2C(c2cccc(-c4ccc(NC(=O)OCc5ccccc5)cc4)c2)=NCC3(C)C)O1 | 161 to 165 °C
CN(C)CCCNC(=O)c1cccc(-c2nnc(CSCCOc3ccccc3)o2)c1 | 88 to 90 °C
CCCc1c(C)nc2ccc(C(=O)OC)cn2c1=O | 98 to 99 °C
COc1ccc(Nc2ccccc2C(=O)N2CCCCC2)cc1 | 106 to 108 °C
N#Cc1ccccc1Nc1cc2c(cc1Nc1ccccc1C#N)C(=O)NC2=O | 279 to 280 °C
CCCc1c(C(=O)C(C)C)c2ccc(C(=O)OC)cc2n1Cc1ccccc1[N+](=O)[O-] | 166 °C
c1ccc(C(OC2CCNCC2)c2ccccc2)cc1 | 56 °C
O=Cc1cc(OCc2ccccc2)ccc1O | 94 to 96 °C
CCOC(=O)Oc1ccc(N)c(C(=O)O)c1 | 157 to 158 °C
CC(=O)Nc1ccc(F)cc1-c1ccc(Cl)c(Cl)c1 | 138 to 140 °C
O=C(N[C@H](Cc1ccc(F)cc1)C(=O)N1CCC(O)CC1)c1cc2ccccc2[nH]1 | 204 to 207 °C

SMILES | melting point
CCCSc1ccc(N)c(C(=O)O)c1 | 91 to 93 °C
CCCCCCCCCCCCc1ccc(NC2CCCc3ccccc32)cc1 (configuration not stated) | 34 °C
Clc1nnc(Cl)c2c1CCCC2 | 148 to 150 °C
O=C(Nc1cnccn1)N1CCN(c2nc(-c3ccccc3)cs2)CC1 | 134 to 135 °C
CCCCCC(O)CCC1CCC(=O)C1CCCCC=CC(=O)O (configuration not stated) | 71 to 75 °C
Fc1cc(F)cc(-c2nc(-c3ccccn3)no2)c1 | 115 to 119 °C
COC1(C=Cc2ccc(C=O)cc2)OOCCOO1 | 95 to 97 °C
CCOP(=O)(/C=C/c1ccc2cc(NC(=O)C(NC(=O)OC(C)(C)C)C(C)(C)C)cc(-c3cccc4ccccc34)c2n1)OCC (configuration not stated) | 249 to 250 °C
NN=C(c1ccccc1)c1cc(Cl)ccc1N | 133 to 134 °C
CCSc1nc2ccc(N)cc2s1 | 77 to 78 °C
O=C(O)C1=Cc2cc([N+](=O)[O-])ccc2OC1C(F)(F)F (configuration not stated) | 187 to 189 °C
CC(=O)C(c1ccccc1)c1cccc2c1NCC2 (configuration not stated) | 55 to 56 °C
O=C(Nc1cc(C(F)(F)F)ccc1N1CCc2ccccc21)c1ccccc1 | 114 to 119 °C
CCCCCCCCCCCCCCCCCC(=O)c1ccc(C2=NC(C)(C)CO2)cc1 | 73 to 76 °C
Cc1cc(-c2ncn(Cc3ccc(F)cc3)n2)sc1C(=O)NCc1cccnc1 | 154 to 155 °C
CC(C)Cn1c(CNC(=O)OC(C)(C)C)c(-c2cccs2)c2cc(OCC(N)=O)ccc2c1=O | 219 to 221 °C
CCn1c(=O)c(C(=O)NC)c(O)c2ccc(C)nc21 | 150 to 154 °C
Cc1ccccc1CC(=NC#N)NC(NC(=O)CCCCc1ccccc1)C(C)(C)C (configuration not stated) | 151 to 152 °C
FC(F)(F)Oc1ccc(Cn2cnc3c(Cl)ncnc32)cc1 | 115 to 116 °C
NC1=NN(c2ccccc2)C(c2ccccc2)C1 (configuration not stated) | 195 to 197 °C
CCc1c(C(=O)c2cc(Cl)cc(Cl)c2)[nH]c(=O)[nH]c1=O | 242 to 243 °C
Cc1sc(N)nc1-c1ccc(CCN2CCN(c3cccc(C(F)(F)F)c3)CC2)cc1 | 110 to 115 °C
O=C1Nc2ccccc2S(=O)(=O)c2ccccc21 | 284 to 286 °C
N#CN=C(Nc1ccc(C#N)cc1O)Nc1ccccc1Br | 175 to 176 °C
Cc1cc(=O)[nH]c2nc(CCCCCN3CCN(c4cccc(Cl)c4Cl)CC3)ccc12 | 195 to 196 °C
C[C@@H](n1cnc2cc(-c3ccc([N+](=O)[O-])cc3)sc2c1=O)[C@](O)(Cn1cncn1)c1ccc(F)cc1F | 272 to 273 °C

SMILES | melting point
Cc1c(-c2ccccc2)oc2c(OCC3CO3)cccc2c1=O (configuration not stated) | 128 to 129 °C
ON=C1C2CCN(CC2)C1CN1CCCC1 (configuration not stated) | 194 to 195 °C
CC[C@@H](C(N)=O)n1nnc2cc(Br)ccc21 | 205 to 207 °C
CCCCc1nc2c(N)nc3ccccc3c2n1CCCNC(=O)Nc1ccccc1 | 191 to 192 °C
O=C(O)c1cc(-c2ccccc2F)ns1 | 191 to 192 °C
Cc1noc(NC(=O)N2CCN(c3nc(-c4cccc(C(F)(F)F)c4)cs3)CC2)c1C | 230 to 231 °C
O=C(c1ccc(-c2cccs2)cc1)N1Cc2ccccc2Nc2ccccc21 | 114 to 116 °C
CC(=O)Nc1ccc(CCC2CSC(=O)NN2)cc1 (configuration not stated) | 235 to 240 °C
COCCn1nc(C(N)=O)cc1CC(C)(C)C#N | 130 to 131 °C
O=C(O)Cc1ccc2c(c1)Cc1ccccc1C(=O)C2 | 186 to 188 °C
Oc1cc(Br)cc(I)c1 | 83 to 84 °C
NC(=O)C(=O)NC(C(=O)OC(c1ccccc1)c1ccccc1)c1ccccc1 (configuration not stated) | 168 °C
O=C(Nc1ccc2c(c1)C(F)(F)C(F)(F)O2)N1CC(c2ccccc2)=C(c2ccc(OC(F)F)cc2)N1 | 155 to 159 °C
COC(=O)C(CC(C)([N+](=O)[O-])[N+](=O)[O-])C(=O)OC | 44 °C
C=C(C)c1c(C)oc2c(NC(=O)c3c(Cl)cccc3Cl)cccc12 | 147 to 148 °C
Cc1cc(-c2ccc(C#N)cc2)c(C)n1Cc1cnc(Cl)c(CO)c1 | 128 to 129 °C
Cc1ccc(NS(=O)(=O)c2ccc(N)cc2)cc1 | 174 to 176 °C
CC(C)(C)OC(=O)N[C@@H](Cc1ccc(O)cc1)C(=O)NCC(=O)NCC(=O)O | 92 to 94 °C
CC1(C)C(=O)Nc2cc3[nH]c(-c4ccc(Cl)c(Cl)c4)nc3cc21 | 320 to 325 °C
Cn1cc(C2=C(c3c4n(c5ccccc35)CCCC(CO)C4)C(=O)NC2=O)c2ccccc21 (configuration not stated) | 268 to 270 °C
CCCn1c(=Nc2ccc(C(=O)OCC)cc2)sc2ncccc2c1=O | 115 to 117 °C
COC(=O)c1ccc(NN)cc1S(=O)(=O)NC(C)(C)C | 133 to 136 °C
COC(=O)c1ccc(OCCON=C(C)c2ccc(C(C)(C)C)cc2)cc1O | 65.4 to 66.8 °C
C[C@@H](C(=O)O)N(C)C(=O)c1cc(C(F)(F)F)cc(N)c1N | 96 °C
COc1cc(Nc2nccc(N3CCC(O)CC3)n2)ccc1-n1cnc(C)c1 | 197 to 200 °C
CCCCCCCCCCC(C(=O)CCCCO)P(=O)(c1ccccc1)c1ccccc1 (configuration not stated) | 70 °C

SMILES | melting point
O=C1c2ccc(-n3ncc4ccccc43)cc2CCN1CCN1CCCC1 | 185 to 186 °C
COc1ccc2c(c1)C(C)(C)Oc1c-2ccc(O)c1C(C)=O | 103 to 104 °C
Cc1ccc(CC2CCC(C)(C)C2(O)Cn2cncn2)cc1 (configuration not stated) | 118 to 120 °C
CCOC(=O)C=Cc1ccc(CCNS(=O)(=O)C=Cc2ccccc2)cc1 | 102 to 104 °C
CCC(C)(C)c1ccc(S(=O)(=O)N2C(=O)C(NCCN3CCOCC3)(c3ccccc3Cl)c3cc(Cl)ccc32)cc1 (configuration not stated) | 147 °C
COc1ccc(CSc2cccnc2C(=O)O)cc1 | 170 to 172 °C
COc1ccc(Cl)cc1-c1cccc2c1OC(CN)C2 (configuration not stated) | 149 to 152 °C
Cc1nc2c(O[Si](C)(C)C(C)(C)C(C)C)c(CC[C@@H](O)c3ccccc3)c(C(=O)N(C)C)cn2c1C | 56 to 58 °C
CC(C)Nc1cccnc1N1CCN(C(=O)c2cc3cc(NC(=O)N4CCN(C)CC4)ccc3[nH]2)CC1 | 200 °C
COc1ccc(OCC(O)CN2CCC(C3Oc4ccccc4Cn4cccc43)CC2)cc1 (configuration not stated) | 95 to 120 °C
CN(C)CCCNC(=O)[C@@H]1CCCN1S(=O)(=O)c1ccc(Cl)c(COc2cccc3c2NC(C)(C)C=C3n2cncn2)c1Cl | 154 °C
COC(=O)c1ccc(Cl)cc1C1(c2ccccc2F)OCC(CCl)O1 (configuration not stated) | 117 to 122 °C
COc1ccc2sc(C(=O)Nc3ccc(CC(=O)O)cc3)c(OC(C)C)c2c1 | 196 °C
O=C1CCCc2ccn(-c3ccccc3)c21 | 66 to 68 °C
OC(c1ccccc1)c1cccnn1 (configuration not stated) | 130 to 135 °C
CCC1(C)CC(NC(=O)c2ccccc2)C(C)C(C)(CC)N1Cc1ccccc1 (configuration not stated) | 173 to 176 °C
COc1ccc(C(=O)Nc2ccc(-c3ccc(S(C)=O)cc3)cc2)cc1CCCN(C)C (configuration not stated) | 190 to 192 °C
COc1ccc(C(=O)Nc2ccc(-c3ccc(C(C)=O)cc3C)cc2)cc1CCCN(C)C | 110 to 112 °C
FC(F)(F)CN1CCN=C(c2ccccc2)c2cc(Cl)ccc21 | 164 to 165 °C
CC(C)Cn1c(C(C)(C)O)nc2c(N)nc3ccccc3c21 | 214 to 217 °C
CC(=O)c1ccc(C)cc1N(C)C=O | 58 to 60 °C
COc1ccc(OC)c2c1CCC(OC(C)=O)(C(C)=O)C2 (configuration not stated) | 120 to 122 °C
CCOC(=O)C=CC(C)=CC=O | 48 to 49 °C
C=C(C)c1cccc(-n2c(C(F)(F)F)nn(C)c2=S)c1 | 64 to 66 °C
